Results: patent US7683091B2, “Substituted indoles and methods of their use” (Wyeth, priority 2005, dated 2010)

Target: T1, recombinant human plasminogen activator inhibitor-1 (PAI-1) (Homo sapiens, UniProt P05121)
T1 construct: purchased Molecular Innovations, Royal Oak, Mich
Test: Primary Screen for PAI-1 Inhibition (chromogenic tPA activity assay)
Type: biochemical
Settings: 140 nM PAI-1, 70 nM tPA, pH 6.6
Experimental: Primary Screen for PAI-1 Inhibition
The ability of the compounds of this invention to inhibit Plasminogen Activator Inhibitor-1 was established by the following experimental procedure:
Test compounds were dissolved in DMSO at a final concentration of 10 mM, then diluted […] in physiologic buffer. The inhibitory assay was initiated by the addition of the test compound (1-100 μM final concentration, maximum DMSO concentration of 0.2%) in a pH 6.6 buffer containing 140 nM recombinant human plasminogen activator inhibitor-1 (PAI-1; Molecular Innovations, Royal Oak, Mich.). Following a 1 hour incubation at room temperature, 70 nM of recombinant human tissue plasminogen activator (tPA) was added, and the combination of the test compound, PAI-1 and tPA was incubated for an additional 30 minutes. Following the second incubation, Spectrozyme-tPA (American Diagnostica, Greenwich, Conn.), a chromogenic substrate for tPA, was added and absorbance read at 405 nm at 0 and 60 minutes. Relative PAI-1 inhibition is equal to the residual tPA activity in the presence of the test compound and PAI-1. Control treatments include the complete inhibition of tPA by PAI-1 at the molar ratio employed (2:1), and the absence of any effect of the test compound on tPA alone.

T1 sequence (P05121 24-402): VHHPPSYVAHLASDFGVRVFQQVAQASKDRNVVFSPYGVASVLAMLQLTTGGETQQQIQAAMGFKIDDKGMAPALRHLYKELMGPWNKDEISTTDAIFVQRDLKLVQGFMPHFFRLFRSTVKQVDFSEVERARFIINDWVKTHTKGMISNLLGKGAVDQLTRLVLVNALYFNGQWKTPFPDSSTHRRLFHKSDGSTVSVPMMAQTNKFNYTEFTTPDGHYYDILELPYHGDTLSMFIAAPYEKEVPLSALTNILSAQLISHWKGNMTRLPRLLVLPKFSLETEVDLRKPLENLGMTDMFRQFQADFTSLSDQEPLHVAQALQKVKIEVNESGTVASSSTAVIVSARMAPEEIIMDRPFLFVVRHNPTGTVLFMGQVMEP

Row | Compound | inhibition at 25 µM
1 | CC(C)(C)c1ccc(Cn2ccc3cc(NS(=O)(=O)c4cccc(C(=O)O)c4)ccc32)cc1 [Example 1, 3-({[1-(4-tert-butylbenzyl)-1H-indol-5-yl]amino}sulfonyl)benzoic acid] | 6 to 78%
2 | COC(=O)CN(c1ccc2c(ccn2Cc2ccc(C(C)(C)C)cc2)c1)S(=O)(=O)c1ccccc1 [Example 2, {Benzenesulfonyl-[1-(4-tert-butyl-benzyl)-1H-indol-5-yl]-amino}-acetic acid methyl ester] | 6 to 78%
3 | CC(C)(C)c1ccc(Cn2ccc3cc(N(Cc4ccc(C(=O)O)cc4)S(=O)(=O)c4ccccc4)ccc32)cc1 [Example 3, 4-{[[1-(4-tert-Butylbenzyl)-1H-indol-5-yl](phenylsulfonyl)amino]methyl}benzoic acid] | 6 to 78%
4 | CC(C)(C)c1ccc(Cn2ccc3cc(NS(=O)(=O)c4ccc(C(=O)O)cc4)ccc32)cc1 [Example 4, 4-({[1-(4-tert-butylbenzyl)-1H-indol-5-yl]amino}sulfonyl)benzoic acid] | 6 to 78%
5 | CC(C)(C)c1ccc(Cn2ccc3cc(NC(=O)N[C@@H](Cc4ccccc4)C(=O)O)ccc32)cc1 [Example 5, N-({[1-(4-tert-Butylbenzyl)-1H-indol-5-yl]amino}carbonyl)-L-phenylalanine] | 6 to 78%
6 | CC(C)(C)c1ccc(Cn2ccc3cc(NC(=O)Nc4cccc(C(=O)O)c4)ccc32)cc1 [Example 6, 3-[({[1-(4-tert-Butylbenzyl)-1H-indol-5-yl]amino}carbonyl)amino]benzoic acid] | 6 to 78%
7 | O=C(O)COc1ccc(Cn2ccc3cc(NS(=O)(=O)c4ccc(-c5ccccc5)cc4)ccc32)cc1 [Example 7, [4-({5-[(1,1′-Biphenyl-4-ylsulfonyl)amino]-1H-indol-1-yl}methyl)phenoxy]acetic acid] | 6 to 78%
8 | CC(C)(C)c1ccc(S(=O)(=O)Nc2ccc3c(ccn3Cc3ccc(OCC(=O)O)cc3)c2)cc1 [Example 8, {4-[(5-{[(4-tert-Butylphenyl)sulfonyl]amino}-1H-indol-1-yl)methyl]phenoxy}acetic acid] | 6 to 78%
9 | O=C(O)C(Cc1ccccc1)n1ccc2cc(NS(=O)(=O)c3ccc(OC(F)(F)F)cc3)ccc21 (stereo not drawn) [Example 9, 3-Phenyl-2-[5-({[4-(trifluoromethoxy)phenyl]sulfonyl}amino)-1H-indol-1-yl]propanoic acid] | 6 to 78%
10 | O=C(N[C@@H](Cc1ccccc1)C(=O)O)c1ccc(Cn2ccc3cc(NS(=O)(=O)c4ccccc4)ccc32)cc1 [Example 10, N-[4-({5-[(Phenylsulfonyl)amino]-1H-indol-1-yl}methyl)benzoyl]-L-phenylalanine] | 6 to 78%
11 | O=C(N[C@@H](Cc1ccccc1)C(=O)O)c1ccc(Cn2ccc3cc(NS(=O)(=O)c4ccc(OC(F)(F)F)cc4)ccc32)cc1 [Example 11, N-(4-{[5-({[4-(Trifluoromethoxy)phenyl]sulfonyl}amino)-1H-indol-1-yl]methyl}benzoyl)-L-phenylalanine] | 6 to 78%
12 | O=C(N[C@@H](Cc1ccccc1)C(=O)O)c1ccc(Cn2ccc3cc(NS(=O)(=O)c4ccc(-c5ccccc5)cc4)ccc32)cc1 [Example 12, N-[4-({5-[(1,1′-Biphenyl-4-ylsulfonyl)amino]-1H-indol-1-yl}methyl)benzoyl]-L-phenylalanine] | 6 to 78%
13 | CC(C)(C)c1ccc(S(=O)(=O)Nc2ccc3c(ccn3Cc3ccc(C(=O)N[C@@H](Cc4ccccc4)C(=O)O)cc3)c2)cc1 [Example 13, N-{4-[(5-{[(4-tert-Butylphenyl)sulfonyl]amino}-1H-indol-1-yl)methyl]benzoyl}-L-phenylalanine] | 6 to 78%
14 | O=C(O)CCNC(=O)c1ccc(Cn2ccc3cc(NS(=O)(=O)c4ccc(OC(F)(F)F)cc4)ccc32)cc1 [Example 14, N-(4-{[5-({[4-(Trifluoromethoxy)phenyl]sulfonyl}amino)-1H-indol-1-yl]methyl}benzoyl)-β-alanine] | 6 to 78%
15 | O=C(O)CCNC(=O)c1ccc(Cn2ccc3cc(NS(=O)(=O)c4ccc(-c5ccccc5)cc4)ccc32)cc1 [Example 15, N-[4-({5-[(1,1′-Biphenyl-4-ylsulfonyl)amino]-1H-indol-1-yl}methyl)benzoyl]-β-alanine] | 6 to 78%
16 | CC(C)(C)c1ccc(S(=O)(=O)Nc2ccc3c(ccn3Cc3ccc(C(=O)NCCC(=O)O)cc3)c2)cc1 [Example 16, N-{4-[(5-{[(4-tert-Butylphenyl)sulfonyl]amino}-1H-indol-1-yl)methyl]benzoyl}-β-alanine] | 6 to 78%
17 | O=C(O)C1CCN(C(=O)c2ccc(Cn3ccc4cc(NS(=O)(=O)c5ccc(Cl)c(Cl)c5)ccc43)cc2)CC1 [Example 17, 1-{4-[(5-{[(3,4-Dichlorophenyl)sulfonyl]amino}-1H-indol-1 yl)methyl]benzoyl}piperidine-4-carboxylic acid] | 6 to 78%
18 | O=C(O)C1CCN(C(=O)c2ccc(Cn3ccc4cc(NS(=O)(=O)c5ccc(-c6ccccc6)cc5)ccc43)cc2)CC1 [Example 18, 1-[4-({5-[(1,1′-Biphenyl-4-ylsulfonyl)amino]-1H-indol-1-yl}methyl)benzoyl]piperidine-4-carboxylic acid] | 6 to 78%
19 | CC(C)(C)c1ccc(S(=O)(=O)Nc2ccc3c(ccn3Cc3ccc(C(=O)N4CCC(C(=O)O)CC4)cc3)c2)cc1 [Example 19, 1-{4-[(5-{[(4-tert-Butylphenyl)sulfonyl]amino}-1H-indol-1-yl)methyl]benzoyl}piperidine-4-carboxylic acid] | 6 to 78%
20 | O=C(O)Cn1ccc2cc(NS(=O)(=O)c3ccc(-c4ccccc4)cc3)ccc21 [Example 20, {5-[(1,1′-Biphenyl-4-ylsulfonyl)amino]-1H-indol-1-yl}acetic acid] | 6 to 78%
21 | O=C(Cn1ccc2cc(NS(=O)(=O)c3ccc(-c4ccccc4)cc3)ccc21)N[C@@H](Cc1ccccc1)C(=O)O [Example 21, N-({5-[(1,1′-Biphenyl-4-ylsulfonyl)amino]-1H-indol-1-yl}acetyl)-L-phenylalanine] | 6 to 78%
22 | CC(C)(C)c1ccc(S(=O)(=O)Nc2ccc3c(ccn3CC(=O)N[C@@H](Cc3ccccc3)C(=O)O)c2)cc1 [Example 22, N-[(5-{[(4-tert-Butylphenyl)sulfonyl]amino}-1H-indol-1-yl)acetyl]-L-phenylalanine] | 6 to 78%
23 | CC(C)C[C@H](NC(=O)Cn1ccc2cc(NS(=O)(=O)c3ccc(-c4ccccc4)cc3)ccc21)C(=O)O [Example 23, N-({5-[(1,1′-biphenyl-4-ylsulfonyl)amino]-1H-indol-1-yl}acetyl)-L-leucine] | 6 to 78%
24 | CC(C)C[C@H](NC(=O)Cn1ccc2cc(NS(=O)(=O)c3ccc(C(C)(C)C)cc3)ccc21)C(=O)O [Example 24, N-[(5-{[(4-tert-butylphenyl)sulfonyl]amino}-1H-indol-1-yl)acetyl]-L-leucine] | 6 to 78%
